These results are taken from publication PMC9879182, “New benzothiazole hybrids as potential VEGFR-2 inhibitors: design, synthesis, anticancer evaluation, and in silico study” (Journal of Enzyme Inhibition and Medicinal Chemistry, 2023).

Each structure is given as a SMILES string. Read-outs that look alike come from different tables or passages of the source.

For data set [1], the system named is MCF-7 cells. The data set can be described thus: Flow cytometry cell cycle analysis (PI staining). It is filed as cell-based, human. The settings on record: for Cell cycle distribution (%) G2-M / Cell cycle distribution (%) S / Cell cycle distribution (%) G0-G1: MCF-7, IC50 concentration, 24 h; for Cell cycle distribution (%) G2-M: control (DMSO) 10.19; for Cell cycle distribution (%) S: control (DMSO) 31.89; for Cell cycle distribution (%) G0-G1: control (DMSO) 57.92; for phase of cell cycle arrest: MCF-7, 24 h. As to the method: It was carried out using MCF-7 cell lines stained with PI and analysed by FACS Calibur flow cytometer as reported[51]^,[58].
The cells were treated with DMSO as a control.

The test system of data set [2] is MCF-7 cells. The data set can be described thus: Annexin V-FITC/PI apoptosis assay. Format: cell-based, human. The settings on record: MCF-7, 24 h; untreated control 0.59%. As to the method:
The extent of apoptosis was evaluated on MCF-7 cells and Annexin V-FITC/PI apoptosis detection kit following the reported method[51]^,[59].
The development of apoptosis inducers is highly attractive therapeutic strategy for the identification of powerful anticancer drugs[67]^,[68].

Data set [3] relates to HCT-116 (colorectal carcinoma). The data set can be described thus: MTT cytotoxicity assay, HCT-116. Format: cell-based. The settings on record: Homo sapiens, mean ± SD, triplicate. Here is the method:
(§1) The in vitro anticancer activity of the new benzothiazole hybrids was evaluated by performing MTT assay as in the literature[51]^,[55]^,[56].
Background: Tetrazolium dyes change colour on reduction, which living cells bring about.

For data set [4], the target named is T1, VEGFR-2 (Homo sapiens, UniProt P35968).
T1 construct: VEGFR-2 enzyme assay was performed as reported[57]
As to the kind of experiment: In vitro VEGFR-2 kinase inhibitory assay. The settings on record: for inhibition at 1 µM: VEGFR-2, compound at 1 μM; for inhibition at 10 µM: VEGFR-2, compound at 10 μM; for % Inhibition 10 nm: VEGFR-2, compound at 10 nm; for % Inhibition 100 nm: VEGFR-2, compound at 100 nm; for IC50: four concentrations 10 nM–10 μM. It is filed as biochemical.

In data set [5] the test system is HCT-116, HEPG-2, and MCF-7. The data set can be described thus: MTT cytotoxicity assay, range over the three cancer cell lines. Format: cell-based, human. The settings on record: range over HCT-116, HEPG-2 and MCF-7, read-out: IC50 range towards the three cell lines. Here is the method: as §1
For data set [6], the system named is HEPG-2 (hepatocellular carcinoma). As to the kind of experiment: MTT cytotoxicity assay, HepG-2. Format: cell-based. The settings on record: Homo sapiens, HepG2, mean ± SD, triplicate. Here is the method: as §1
Data set [7] deals with WI-38 normal fibroblast cells. As to the kind of experiment: MTT cytotoxicity against normal cells. Format: cell-based. The settings on record: Homo sapiens, mean ± SD, triplicate. Here is the method:
as §1
All tested compounds were studied for their cytotoxic activity on the WI-38 normal fibroblast WI-38 cells to assess their therapeutic safety.

In data set [8] the test system is MCF-7 (breast cancer). The data set can be described thus: MTT cytotoxicity assay, MCF-7. It is filed as cell-based. The settings on record: Homo sapiens, MCF7, mean ± SD, triplicate. Here is the method:
as §1

Data set [9] concerns the target T1, VEGFR-2. The settings on record: cited from earlier work.

T1 sequence (P35968 20-1356): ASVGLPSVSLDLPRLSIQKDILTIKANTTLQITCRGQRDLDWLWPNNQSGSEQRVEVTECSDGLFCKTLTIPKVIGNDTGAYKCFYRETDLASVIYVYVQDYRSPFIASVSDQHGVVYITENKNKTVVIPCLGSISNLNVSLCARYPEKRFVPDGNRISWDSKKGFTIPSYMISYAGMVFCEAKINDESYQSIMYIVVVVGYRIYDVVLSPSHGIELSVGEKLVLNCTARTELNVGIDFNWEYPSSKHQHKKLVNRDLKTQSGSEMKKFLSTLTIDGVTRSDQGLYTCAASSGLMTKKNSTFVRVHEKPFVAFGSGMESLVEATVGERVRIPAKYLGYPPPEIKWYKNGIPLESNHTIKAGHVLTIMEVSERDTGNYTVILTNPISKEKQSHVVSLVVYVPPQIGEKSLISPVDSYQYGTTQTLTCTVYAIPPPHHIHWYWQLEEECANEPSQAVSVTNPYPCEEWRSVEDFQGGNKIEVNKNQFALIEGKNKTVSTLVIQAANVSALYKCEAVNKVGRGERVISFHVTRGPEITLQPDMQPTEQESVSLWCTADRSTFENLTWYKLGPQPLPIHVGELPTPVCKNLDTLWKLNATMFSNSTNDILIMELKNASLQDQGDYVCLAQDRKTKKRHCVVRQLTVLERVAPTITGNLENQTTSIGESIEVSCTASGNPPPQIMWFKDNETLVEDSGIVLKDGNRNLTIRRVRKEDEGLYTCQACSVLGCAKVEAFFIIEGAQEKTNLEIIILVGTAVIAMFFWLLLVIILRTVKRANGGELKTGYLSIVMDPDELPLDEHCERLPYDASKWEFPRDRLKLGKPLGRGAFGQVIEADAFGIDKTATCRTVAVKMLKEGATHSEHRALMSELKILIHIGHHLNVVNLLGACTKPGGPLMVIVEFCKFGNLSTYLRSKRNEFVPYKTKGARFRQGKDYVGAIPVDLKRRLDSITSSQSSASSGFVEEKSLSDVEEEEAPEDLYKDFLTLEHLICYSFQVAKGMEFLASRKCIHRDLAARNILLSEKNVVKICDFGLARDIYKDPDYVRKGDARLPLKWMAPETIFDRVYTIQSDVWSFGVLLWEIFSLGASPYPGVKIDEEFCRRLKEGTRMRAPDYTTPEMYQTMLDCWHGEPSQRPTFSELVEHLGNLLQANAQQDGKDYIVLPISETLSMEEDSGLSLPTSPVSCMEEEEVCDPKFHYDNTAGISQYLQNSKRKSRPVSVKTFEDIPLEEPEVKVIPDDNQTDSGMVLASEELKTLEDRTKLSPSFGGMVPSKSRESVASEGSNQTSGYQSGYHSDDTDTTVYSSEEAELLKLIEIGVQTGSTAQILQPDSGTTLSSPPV

The term IC50 denotes the midpoint of a concentration-inhibition curve. Usually inhibition stands for the drop in the measured response relative to a control, in per cent. A higher inhibition goes with a response far below the control. Consider `O=C(CN1C(=O)SC(=Cc2ccc(F)cc2)C1=O)Nc1nc2ccc([N+](=O)[O-])cc2s1` [4a, 2-(5-(4-Fluorobenzylidene)-2,4-dioxothiazolidin-3-yl)-N-(6-nitrobenzo[d]thiazol-2-yl)acetamide], for which, in [1], the “Cell cycle distribution (%) G2-M” value was 3.28%, the “Cell cycle distribution (%) S” value was determined as 49.85% and the “Cell cycle distribution (%) G0-G1” value is 46.87%. Besides, the “ratio of total apoptotic cells (early and late apoptotic cells)” value (from here on “ratio of total apoptotic cells”) in [2] is 49.71%. Moreover, the midpoint of inhibition in data set [3], the IC50, lay at 5.61 ± 0.3 µM. Further, in data set [4], the inhibition at 1 µM turned out to be 77.9%, 10 µM produced 92% inhibition, the “% Inhibition 10 nm” value was 31.27% and the “% Inhibition 100 nm” value is reported as 45.14%. In addition, half-maximal inhibition in [4] (IC50) required 91 nM. Besides, in data set [5] (Homo sapiens), the IC50 fell in the range of 3.84 to 9.04 µM. The IC50 in [6] amounted to 7.92 ± 0.6 µM. In addition, half-maximal inhibition in data set [7] (IC50) required 45.2 ± 2.6 µM. Moreover, the IC50 in [8] turned out to be 3.84 ± 0.1 µM.

As to `COc1ccc(C=C2SC(=O)N(CC(=O)Nc3nc4ccc([N+](=O)[O-])cc4s3)C2=O)cc1` [4b, 2-(5-(4-Methoxybenzylidene)-2,4-dioxothiazolidin-3-yl)-N-(6-nitrobenzo[d]thiazol-2-yl)acetamide], the IC50 in data set [3] is 29.9 ± 2.2 µM; in [5] (Homo sapiens) it was 22.3 to 34.7 µM; in data set [6], 34.7 ± 2.4 µM; in data set [7], 77.6 ± 4.3 µM; in data set [8] it was 22.3 ± 1.7 µM.

Turning to `O=C(CN1C(=O)SC(=Cc2ccc(Br)cc2)C1=O)Nc1nc2ccc([N+](=O)[O-])cc2s1` [4c, 2-(5-(4-Bromobenzylidene)-2,4-dioxothiazolidin-3-yl)-N-(6-nitrobenzo[d]thiazol-2-yl)acetamide], the IC50 in data set [3] is 47.9 ± 2.9 µM; in [5] (Homo sapiens) it was 47.9 to 65.5 µM; in data set [6] it was 65.5 ± 3.6 µM; in [7], 28.9 ± 2.2 µM; in [8] it was 50.1 ± 2.9 µM.

Broadly, the melting point is the temperature, or range, at which the solid turns liquid. `Cc1ccc(C=C2SC(=O)N(CC(=O)Nc3nc4ccc([N+](=O)[O-])cc4s3)C2=O)cc1` [4d, 2-(5-(4-Methylbenzylidene)-2,4-dioxothiazolidin-3-yl)-N-(6-nitrobenzo[d]thiazol-2-yl)acetamide] had a melting point of 201 to 203 °C. This compound displayed an IC50 in data set [3] of 26.8 ± 2.1 µM. Besides, the IC50 in data set [5] (Homo sapiens) lay within 15.5 to 26.8 µM. In data set [6], half-maximal inhibition (IC50) was put at 21.1 ± 1.8 µM. In data set [7], this compound gave an IC50 of 74 ± 4.1 µM. This compound displayed an IC50 in [8] of 15.5 ± 1.2 µM.

For the compound `COc1cc(C=C2SC(=O)N(CC(=O)Nc3nc4ccc([N+](=O)[O-])cc4s3)C2=O)cc(OC)c1OC` [4e, 2-(2,4-Dioxo-5–(3,4,5-trimethoxybenzylidene)thiazolidin-3-yl)-N-(6-nitrobenzo[d]thiazol-2-yl)acetamide], in data set [1], the “phase of cell cycle arrest” value is “S phase”, the “Cell cycle distribution (%) G2-M” value worked out at 4.99%, the “Cell cycle distribution (%) S” value was determined as 42.66% and the “Cell cycle distribution (%) G0-G1” value is on record as 52.35%. For the same compound, the “ratio of total apoptotic cells” value in data set [2] turned out to be 42.17%. Moreover, the IC50 in data set [3] was found to be 8.24 ± 0.6 µM. Also, in [4], testing at 1 µM gave an inhibition of 70.5%, the inhibition at 10 µM was 88.7%, the “% Inhibition 10 nm” value was 24.09% and the “% Inhibition 100 nm” value was determined as 42.84%. In [4], this compound returned an IC50 of 161 nM. Besides, the IC50 in data set [5] (Homo sapiens) was 3.84 to 9.04 µM. Besides, in data set [5], the IC50 was 6.11 to 9.04 µM. In data set [6], this compound displayed an IC50 of 9.04 ± 0.8 µM. For the same compound, 32.8 ± 2.3 µM corresponded to half-maximal inhibition in data set [7] (IC50). The IC50 in data set [8] amounted to 6.11 ± 0.4 µM.

Consider `Cc1ccc(-c2nc(SCC(=O)Nc3nc4ccc([N+](=O)[O-])cc4s3)[nH]c(=O)c2C#N)cc1` [8a], for which, in data set [1], the “phase of cell cycle arrest” value is reported as “G1/S phase”, the “Cell cycle distribution (%) G2-M” value was 2.53%, the “Cell cycle distribution (%) S” value is reported as 36.11% and the “Cell cycle distribution (%) G0-G1” value came out at 61.36%. Also, the “ratio of total apoptotic cells” value in data set [2] was 30.75%. This compound also gave an IC50 in data set [3] of 13.9 ± 1 µM. For the same compound, in data set [4], 1 µM produced 70.1% inhibition, the inhibition at 10 µM was 83.5%, the “% Inhibition 10 nm” value is on record as 16.31% and the “% Inhibition 100 nm” value is 37.14%. The compound further showed an IC50 in data set [4] of 266 nM. In addition, in [5] (Homo sapiens), the IC50 lay within 10.9 to 18.1 µM. In addition, the IC50 in data set [6] turned out to be 18.1 ± 1.4 µM. Moreover, in data set [7], the IC50 stood at 53.1 ± 3.1 µM. Moreover, it took 10.9 ± 0.8 µM to reach half-maximal inhibition in data set [8] (IC50).

In the case of `CNC(=O)c1cc(Oc2ccc(NC(=O)Nc3ccc(Cl)c(C(F)(F)F)c3)cc2)ccn1` [SOR, Sorafenib, reference compound], the IC50 in data set [3] was found to be 5.23 ± 0.3 µM; in data set [6], 4.5 ± 0.2 µM; in [7] it was 6.72 ± 0.5 µM; in data set [8] it was 4.17 ± 0.2 µM.

`O=C(CN1C(=O)S/C(=C\c2ccc(F)cc2)C1=O)Nc1nc2ccccc2s1` [X]: the IC50 in data set [9] was 0.19 µM.
